System: partial liver transplant
Test: Liver regeneration-promoting effect in rat 30% orthotopic partial liver transplantation
Format: in vivo
Conditions: for Relative liver gain: (liver weight on day 5) / (liver weight on day 0); for Relative liver gain / Liver weight gain: transfusion 50 ml/kg/day up to day 5, mean±SD; for Liver weight gain: (liver weight on day 5) − (liver weight on day 0)
Description: Male Wistar rats at 8 weeks of age (240-280g; 8-9 animals per group) were used for 30% orthotopic partial liver transplantation. Isolation of the liver from donors was performed as follows. Animals were abdominally incised under ether anesthesia and about 70% of the liver was resected and the common bile duct and arteries were separated immediately before starting liver perfusion with cold physiological saline from the portal vein. After starting perfusion, the remaining liver with the portal vein and the posterior vena cava-was removed from the donor animal. Recipients were abdominally incised under Nembutal anesthesia and the whole liver was resected and the upper end of the posterior vena cava of the graft was continuously sutured (7-0 proline) with the proximal end of the posterior vena cava of the recipients. The donor posterior vena cava of the graft was sutured end-to-end with that of the recipient, and the portal vein and common bile duct of the graft were anastomosed with those of the recipient, respectively, by the cuff technique. The operation period was 45 minutes on average, the […] period was within 900 seconds, and the total period for cold-storing the graft was 1 hour. Immediately after the operation was completed, a catheter was inserted from the jugular vein. The catheter was passed through the subcutaneous tunnel across both scapulae, and connected to a swivel through a protective coil after a harness was put on the animal. Rats were transferred to a metabolic cage and divided into the following two groups and continuously pumped with the transfusion formula at an administration rate of 50 ml/kg/day up to day 5. Valine group: An aqueous solution of L-valine (Japanese Pharmacopoeia) at 3.376% was transfused in combination with glucose at 5% on the day of operation and 20% on days 1-5. Control group: A solution of a 10% amino acid blend formula (Moripron F® made by Roussel Morishita Co., Ltd.) diluted in distilled water at a total nitrogen level equivalent to that of the valine group was transfused in combination with glucose at 5% on the day of operation and 20% on days 1-5. Animals were given free access to normal feed and water. On day 5, animals were abdominally incised under ether anesthesia and blood was collected from the abdominal aorta and the liver was separated after bleeding. Serum protein (TP), albumin (ALB), GOT, GPT and LDH and the liver weight were determined. The resected liver was fixed with formalin to prepare a hematoxylin-eosin stained sample for histological tests. The measurement results were expressed in mean±SD and statistically analyzed by the Mann-Whitney U test to show a significant difference if p<0.05. Liver weight gain and relative liver gain were determined as morphologic indications of the liver-regenerating effect. Here, the liver weight gain means (liver weight on day 5)-(liver weight on day 0), and the relative liver gain means (liver weight on day 5)/(liver weight on day 0). Not the liver weight itself but the liver weight gain was chosen as indication because liver transplants vary in weight and the difference between the weight of each liver transplant (weight on day 0) and the weight of the regenerated transplant (weight on day 5) more appropriately indicates changes in the transplant.

Biochemical blood tests (TP, ALB, GOT, GPT, LDH) (serum on day 5, valine group vs control group): No significant difference
SMILES: CC(C)[C@H](N)C(=O)O [Valine, L-valine]
Relative liver gain: 2.24 ± 0.18
Relative liver gain (listed as valine): 2.24±0.18
Liver weight gain: 3.88 ± 0.66 g
Liver weight gain (listed as valine): 3.88 ± 0.66 g
Histopathological tests of the regenerated liver (day 5, hematoxylin-eosin stained sample): No abnormal observation
Edema or necrosis of hepatocytes (day 5, histology of regenerated liver): Neither control group nor valine group showed edema or necrosis
Liver weight (g) on day 5 (male Wistar rats, continuous i.v. transfusion 50 ml/kg/day up to day 5, mean±SD): 7.05 ± 0.99 g
Liver weight (g) on day 0 (male Wistar rats, graft weight on day of transplantation (baseline), mean±SD): 3.16 ± 0.45 g
